From US4886807A, “Novel pyrimidopyrimidine derivative, process for producing it and pharmaceutical composition” (Nippon Zoki Pharmaceutical Co., Ltd., priority 1988, dated 1989)

Columns and labels:
[1] = test system: PCA (passive cutaneous anaphylaxis) reaction; test: Anti-allergic effect: PCA (passive cutaneous anaphylaxis) reaction in rats; assay type: in vivo, rats (Wister-strain, male); conditions: oral, 1 hour before challenge; for Leak of Dye: control 10.7 ± 1.0; for inhibition in vivo at 20 mg/kg / inhibition in vivo at 100 mg/kg / inhibition in vivo at 50 mg/kg: Rattus norvegicus, inhibition of dye leakage
Experimental: PCA (passive cutaneous anaphylaxis) reaction in rats was taken as an index to an anti-allergic effect of the compound of the present invention.
In order to perform sensitization, anti-DNP-Asc (dinitrophenylated Ascaris extracts) serum diluted with saline was injected intradermally at 4 sites on the shaved back of groups of 10 Wister-strain male rats (6 weeks of age). 1 hour after oral administration of the test drug, the mixture of equivalent amounts of DNP-Asc (5 mg/ml) and 2% Evans blue were intravenously injected to generate PCA reaction. 30 minutes thereafter, rats were killed by decapitation and exsanguinated. The skin was opened in order to evaluate the leakage of blue dye. The obtained skin was dissolved in 2N potassium hydroxide, then 2N phosphoric acid and acetone were added thereto. The amount of dye was determined by measurement of absorbance at 620 nm after centrifugation.

Acute toxicity test = conditions: mouse, in vivo, mice, mortality for 7 days after administration, probit method
Experimental: The test compounds were administered to groups of 10 ddy-strain male mice (weighing about 20 g). LD50 values of the compounds of the invention were calculated by the probit method based on mortality for 7 days after drug administration.

Structure (SMILES)	Leak of Dye ([1]; 20 mg/kg) [μg/site]	inhibition in vivo at 20 mg/kg ([1]; 20 mg/kg) [%]	Leak of Dye ([1]; 100 mg/kg) [μg/site]	inhibition in vivo at 100 mg/kg ([1]; 100 mg/kg) [%]	LD50 at 168 h (Acute toxicity test; po) [mg/kg]	Leak of Dye ([1]; 50 mg/kg) [μg/site]	inhibition in vivo at 50 mg/kg ([1]; 50 mg/kg) [%]	LD50 at 168 h (Acute toxicity test; ip) [mg/kg]
Cn1c(=O)c2[nH]cnc2n(C)c1=O [Theophylline, reference compound]	3.5 ± 1.3	67.3	–	–	–	–	–	–
Cn1c(=O)c2cnc(N)nc2n(-c2ccccc2)c1=O [compound 7, 7-amino-1-phenyl-3-methylpyrimido[4,5-d]pyrimidine-2,4-dione]	–	–	5.4 ± 0.7	49.5	–	–	–	–
Cc1ncc2c(=O)n(C)c(=O)n(C)c2n1 [compound 3, 1,3,7-trimethylpyrimido[4,5-d]pyrimidine-2,4-dione]	–	–	–	–	690	4.2 ± 0.5	60.7	–
Cn1c(=O)c2cnc(C(F)(F)F)nc2n(C)c1=O [compound 4, 7-trifluoromethyl-1,3-dimethylpyrimido[4,5-d]pyrimidine-2,4-dione]	–	–	–	–	–	6.6 ± 1.1	38.3	–
Cn1c(=O)c2c(N)ncnc2n(C)c1=O [compound 9, 5-amino-1,3-dimethylpyrimido[4,5-d]pyrimidine-2,4-dione]	5.9 ± 1.2	44.9	0.6 ± 0.1	94.4	–	–	–	–
Cc1nc(N)c2c(=O)n(C)c(=O)n(C)c2n1 [compound 12, 5-amino-1,3,7-trimethylpyrimido[4,5-d]pyrimidine-2,4-dione]	–	–	1.0 ± 0.3	90.7	707	–	–	–
CCn1c(=O)c2c(N)ncnc2n(CC)c1=O [compound 10, 5-amino-1,3-diethylpyrimido[4,5-d]pyrimidine-2,4-dione]	–	–	1.6 ± 0.4	85	748	–	–	–
CCn1c(=O)c2cnc(N)nc2n(CC)c1=O [compound 17, 7-amino-1,3-diethyl-pyrimido[4,5-d]pyrimidine-2,4-dione]	–	–	2.4 ± 0.7	77.6	–	–	–	–
CNc1ncnc2c1c(=O)n(C)c(=O)n2C [compound 16, 5-methylamino-1,3-dimethylpyrimido[4,5-d]pyrimidine-2,4-dione]	–	–	1.7 ± 0.6	84.1	–	–	–	–
Cn1c(=O)c2cnc(N)nc2n(C)c1=O [compound 6, 7-amino-1,3-dimethylpyrimido[4,5-d]pyrimidine-2,4-dione]	5.0 ± 0.9	53.3	0.7 ± 0.2	93.5	940	2.3 ± 0.7	78.5	140
CC(C)Cn1c(=O)n(C)c(=O)c2c(N)ncnc21 [compound 11, 5-amino-1-iso-butyl-3-methylpyrimido[4,5-d]pyrimidine-2,4-dione]	–	–	2.9 ± 0.8	72.9	–	–	–	–
CNc1ncc2c(=O)n(C)c(=O)n(C)c2n1 [compound 8, 7-methylamino-1,3-dimethylpyrimido[4,5-d]pyrimidine-2,4-dione]	7.6 ± 1.6	29	–	–	–	2.8 ± 0.7	73.8	–
Cn1c(=O)c2c(N)nc(N)nc2n(C)c1=O [compound 14, 5,7-diamino-1,3-dimethylpyrimido[4,5-d]pyrimidine-2,4-dione]	–	–	1.9 ± 0.5	82.2	–	–	–	–
Cn1c(=O)c2cncnc2n(C)c1=O [compound 5, 1,3-dimethylpyrimido[4,5-d]pyrimidine-2,4-dione]	–	–	–	–	–	4.1 ± 0.8	61.7	–
CC(C)Cn1c(=O)n(C)c(=O)c2cnc(N)nc21 [compound 18, 7-amino-1-iso-butyl 3-methylpyrimido[4,5-d]pyrimidine-2,4-dione]	–	–	4.0 ± 0.6	62.6	–	–	–	–
Cn1c(=O)c2cnc(-c3ccccc3)nc2n(C)c1=O [compound 2, 7-phenyl-1,3-dimethylpyrimido[4,5-d]pyrimidine-2,4-dione]	–	–	–	–	–	8.2 ± 0.9	23.4	–
